System: hepatocytes
Assay: RNA-seq of hepatocytes treated with Phase III failure compounds
Settings: hepatocytes
Procedure: RNA-seq was performed to determine the effects of the compounds on hepatocytes.
Significance was determined by the criteria of FPKM≥0.5, a log 2(fold-change)≥1, and a […].

Structure (SMILES): COc1nc(N)nc2c1ncn2[C@@H]1O[C@H](COP(=O)(N[C@@H](C)C(=O)OCC(C)(C)C)Oc2cccc3ccccc23)[C@@H](O)[C@@]1(C)O (some centres unmarked) [Bms-986094 (inx-189), Bms-986094]
- significant modulation of expression of disease genes (RNA-seq, q≤0.05, genes in the value or listed in the block): significantly (q≤0.05) modulate expression
- A1BG expression, RNA-seq result (gene A1BG): −0.1
- AARS2 expression, RNA-seq result (gene AARS2): 0.13
- AASS expression, RNA-seq result (gene AASS): −0.77
- ABAT expression, RNA-seq result (gene ABAT): −1.42
- ABCA1 expression, RNA-seq result (gene ABCA1): −0.43
- ABCB4 expression, RNA-seq result (gene ABCB4): −0.43
- ABCB11 expression, RNA-seq result (gene ABCB11): −0.76
- ABCC2 expression, RNA-seq result (gene ABCC2): −1.34
- ABCC3 expression, RNA-seq result (gene ABCC3): −0.96
- ABCC6 expression, RNA-seq result (gene ABCC6): −1.45
- ABCD1 expression, RNA-seq result (gene ABCD1): 0.08
- ABCD3 expression, RNA-seq result (gene ABCD3): −0.4
- ABCG5 expression, RNA-seq result (gene ABCG5): −0.11
- ABCG8 expression, RNA-seq result (gene ABCG8): −0.11
- ABHD5 expression, RNA-seq result (gene ABHD5): 0.25
- ACACA expression, RNA-seq result (gene ACACA): −2.09
- ACACB expression, RNA-seq result (gene ACACB): −1.86
- ACAD9 expression, RNA-seq result (gene ACAD9): −0.83
- ACADSB expression, RNA-seq result (gene ACADSB): −0.04
- ACADVL expression, RNA-seq result (gene ACADVL): 0.11
- ACOT8 expression, RNA-seq result (gene ACOT8): −0.33
- ACOX2 expression, RNA-seq result (gene ACOX2): −0.97
- ACOX3 expression, RNA-seq result (gene ACOX3): −1.75
- ACSF3 expression, RNA-seq result (gene ACSF3): −0.6
- ACSL1 expression, RNA-seq result (gene ACSL1): −0.12
- ACSL3 expression, RNA-seq result (gene ACSL3): 0.16
- ACTG2 expression, RNA-seq result (gene ACTG2): −0.13
- ACTN1 expression, RNA-seq result (gene ACTN1): −2.21
- ADA expression, RNA-seq result (gene ADA): −0.72
- ADCK3 expression, RNA-seq result (gene ADCK3): 0.18
- ADK expression, RNA-seq result (gene ADK): −1.7
- ADSL expression, RNA-seq result (gene ADSL): −0.96
- AFP expression, RNA-seq result (gene AFP): −0.16
- AGK expression, RNA-seq result (gene AGK): −0.43
- AGL expression, RNA-seq result (gene AGL): −0.97
- AGPAT2 expression, RNA-seq result (gene AGPAT2): −1.09
- AGPS expression, RNA-seq result (gene AGPS): −1.61
- AGT expression, RNA-seq result (gene AGT): 0.27
- AGTR1 expression, RNA-seq result (gene AGTR1): −0.07
- AGXT expression, RNA-seq result (gene AGXT): −0.66
- AHI1 expression, RNA-seq result (gene AHI1): −0.61
- AHSG expression, RNA-seq result (gene AHSG): −0.32
- AK1 expression, RNA-seq result (gene AK1): 0.62
- AKR1C1 expression, RNA-seq result (gene AKR1C1): −0.96
- AKR1C2 expression, RNA-seq result (gene AKR1C2): −1.2
- AKR1C4 expression, RNA-seq result (gene AKR1C4): −1.68
- AKR1D1 expression, RNA-seq result (gene AKR1D1): 0.17
- ALAD expression, RNA-seq result (gene ALAD): −0.69
- ALAS1 expression, RNA-seq result (gene ALAS1): 0.11
- ALDH1B1 expression, RNA-seq result (gene ALDH1B1): −0.86
- ALDH2 expression, RNA-seq result (gene ALDH2): −0.04
- ALDH6A1 expression, RNA-seq result (gene ALDH6A1): −0.08
- ALDOA expression, RNA-seq result (gene ALDOA): −0.48
- ALDOB expression, RNA-seq result (gene ALDOB): −0.27
- ALG12 expression, RNA-seq result (gene ALG12): −0.76
- ALMS1 expression, RNA-seq result (gene ALMS1): −1.35
- ALPL expression, RNA-seq result (gene ALPL): −1.05
- AMACR expression, RNA-seq result (gene AMACR): 0.28
- AMPD3 expression, RNA-seq result (gene AMPD3): 0.57
- AMT expression, RNA-seq result (gene AMT): −0.61
- ANGPTL3 expression, RNA-seq result (gene ANGPTL3): −0.73
- ANKS4B expression, RNA-seq result (gene ANKS4B): −0.39
- ANKS6 expression, RNA-seq result (gene ANKS6): −0.13
- ANPEP expression, RNA-seq result (gene ANPEP): −0.47
- AOC2 expression, RNA-seq result (gene AOC2): 0.32
- AP3B1 expression, RNA-seq result (gene AP3B1): −1.36
- APC expression, RNA-seq result (gene APC): −0.04
- APOA1 expression, RNA-seq result (gene APOA1): −0.05
- APOA2 expression, RNA-seq result (gene APOA2): 0.31
- APOA5 expression, RNA-seq result (gene APOA5): −0.18
- APOB expression, RNA-seq result (gene APOB): −0.78
- APOC2 expression, RNA-seq result (gene APOC2): 0
- APOC3 expression, RNA-seq result (gene APOC3): 0.42
- APOE expression, RNA-seq result (gene APOE): −0.56
- APRT expression, RNA-seq result (gene APRT): −0.42
- AQP7 expression, RNA-seq result (gene AQP7): −0.35
- AQP9 expression, RNA-seq result (gene AQP9): −0.05
- ARG1 expression, RNA-seq result (gene ARG1): −1.7
- ARG2 expression, RNA-seq result (gene ARG2): 0.62
- ARL13B expression, RNA-seq result (gene ARL13B): −0.67
- ARSA expression, RNA-seq result (gene ARSA): 0.27
- ARSB expression, RNA-seq result (gene ARSB): −0.25
- ASL expression, RNA-seq result (gene ASL): −0.24
- ASNS expression, RNA-seq result (gene ASNS): 1.61
- ASPA expression, RNA-seq result (gene ASPA): 1.55
- ASXL1 expression, RNA-seq result (gene ASXL1): −1.04
- ATG7 expression, RNA-seq result (gene ATG7): −1.54
- ATIC expression, RNA-seq result (gene ATIC): −0.74
- ATM expression, RNA-seq result (gene ATM): −0.5
- ATP7A expression, RNA-seq result (gene ATP7A): −0.03
- ATP7B expression, RNA-seq result (gene ATP7B): −0.8
- ATP8B1 expression, RNA-seq result (gene ATP8B1): −2.3
- B2M expression, RNA-seq result (gene B2M): 0.23
- B9D2 expression, RNA-seq result (gene B9D2): −0.83
- BAAT expression, RNA-seq result (gene BAAT): −1.93
- BBOX1 expression, RNA-seq result (gene BBOX1): −0.77
- BBS10 expression, RNA-seq result (gene BBS10): 0.59
- BCHE expression, RNA-seq result (gene BCHE): −0.67
- BCKDHB expression, RNA-seq result (gene BCKDHB): −1.21
- BCKDK expression, RNA-seq result (gene BCKDK): −0.42
- BCO1 expression, RNA-seq result (gene BCO1): 0.72
- BCR expression, RNA-seq result (gene BCR): −1.54
- BLNK expression, RNA-seq result (gene BLNK): 1.31
- BLOC1S3 expression, RNA-seq result (gene BLOC1S3): 0.01
- BMPR1A expression, RNA-seq result (gene BMPR1A): −0.9
- BRAF expression, RNA-seq result (gene BRAF): −0.44
- BSCL2 expression, RNA-seq result (gene BSCL2): 0.07
- BTD expression, RNA-seq result (gene BTD): −0.53
- C4A expression, RNA-seq result (gene C4A): 0.29
- C9 expression, RNA-seq result (gene C9): 0.55
- C10orf10 expression, RNA-seq result (gene C10orf10): 0.23
- C10orf11 expression, RNA-seq result (gene C10orf11): −2.08
- C15orf41 expression, RNA-seq result (gene C15orf41): −1.68
- CA2 expression, RNA-seq result (gene CA2): 0.9
- CA5A expression, RNA-seq result (gene CA5A): −1.34
- CA12 expression, RNA-seq result (gene CA12): 0.58
- CAV1 expression, RNA-seq result (gene CAV1): −0.74
- CCND1 expression, RNA-seq result (gene CCND1): −0.78
- CD46 expression, RNA-seq result (gene CD46): 0.43
- CD81 expression, RNA-seq result (gene CD81): 0.03
- CD320 expression, RNA-seq result (gene CD320): −0.96
- CDAN1 expression, RNA-seq result (gene CDAN1): 0.38
- CDH1 expression, RNA-seq result (gene CDH1): −1.79
- CEP19 expression, RNA-seq result (gene CEP19): −0.28
- CEP83 expression, RNA-seq result (gene CEP83): −0.39
- CEP164 expression, RNA-seq result (gene CEP164): 0.23
- CEP290 expression, RNA-seq result (gene CEP290): 0.21
- CFB expression, RNA-seq result (gene CFB): 0.29
- CFHR2 expression, RNA-seq result (gene CFHR2): 0.7
- CHRM3 expression, RNA-seq result (gene CHRM3): −2.02
- CIDEC expression, RNA-seq result (gene CIDEC): −0.6
- CLDN1 expression, RNA-seq result (gene CLDN1): −0.83
- COG1 expression, RNA-seq result (gene COG1): 0.5

— patent US20210254056A1, “IDENTIFICATION AND TARGETED MODULATION OF GENE SIGNALING NETWORKS” (CAMP4 THERAPEUTICS CORPORATION, priority 2017, published 2021)
